Tested on: subjects with advanced malignancies
Assay: Phase 1 dose escalation: toxicity, safety and tolerability (DLT, MAD, RP2D, AEs)
[1] = 7.11 mg/m^2 (n = 7), All grades

Method: Subjects continued on treatment until there was disease progression, unacceptable toxicity, or the subject withdrew consent. The trial employed an accelerated titration design [16] starting at a dose of 0.33 mg/m^2 (one-sixth of the highest nontoxic dose in dogs).
the dose was doubled in sequential subjects until a DLT was observed or a subject experienced grade 2 toxicity [16]. In the case of an observed grade 2 toxicity, a second subject was enrolled at the same dose level. If the second subject also experienced a grade 2 toxicity, 2 additional subjects were accrued at that dose level for a total of 4 subjects. […] Each subject was allocated to only a single dose level of drug. Dose delay or modification was permitted based on laboratory and clinical assessment performed on the day of treatment.
Dose-limiting toxicities were determined during the first cycle for each dose level. A DLT was defined as any grade 3 or 4 hematologic toxicity lasting for at least 1 week, or as any grade 3 or 4 nonhematologic toxicity. […] Normal alkaline phosphatase level (< grade 1) at screening that rose to greater than or equal to grade 3; grade 1 or 2 alkaline phosphatase level at screening that rose to grade 4; grade 1 or 2 aspartate aminotransferase (AST) and/or alanine aminotransferase (ALT) levels at screening that doubled from baseline to become greater than or equal to grade 3; and any other abnormal nonhematology laboratory value greater than or equal to grade 3 that required medical intervention to treat, led to hospitalization, or persisted for at least 1 week were also considered DLTs.
Adverse events were graded based on the National Cancer Institute Common Terminology Criteria for Adverse Events (NCI CTCAE version 3.0) and were coded using the Medical Dictionary for Regulatory Activities (MedDRA version 13.0).

CCc1cnn2c(NCc3ccc[n+]([O-])c3)cc(N3CCCC[C@H]3CCO)nc12 [dinaciclib]
2 (67) n (%): TEAE: Constipation (10 mg/m^2 (n = 3), All grades) | TEAE: Vomiting (10 mg/m^2 (n = 3), All grades)
2 (29) n (%): TEAE: Asthenia [1] | TEAE: Decreased appetite [1] | TEAE: Flatulence [1] | TEAE: Urinary tract infection [1] | TEAE: Vomiting [1] | TEAE: Anemia (7.11 mg/m^2 (n = 7), Grade 3–4)
1 (33) n (%): TEAE: Abdominal pain (10 mg/m^2 (n = 3), All grades) | TEAE: Diarrhea (10 mg/m^2 (n = 3), All grades) | TEAE: Hyperglycemia (10 mg/m^2 (n = 3), All grades) | TEAE: Hypokalemia (10 mg/m^2 (n = 3), All grades) | TEAE: Nausea (10 mg/m^2 (n = 3), All grades) | TEAE: Neutropenia (10 mg/m^2 (n = 3), All grades) | TEAE: Urinary tract infection (10 mg/m^2 (n = 3), All grades)
5 (71) n (%): TEAE: Nausea [1]
0 n (%): TEAE: Cough [1] | TEAE: Hyperbilirubinemia [1] | TEAE: Hyperglycemia [1] | TEAE: Hyperuricemia [1] | TEAE: Hypophosphatemia [1] | TEAE: Increased ALP [1] | TEAE: Increased ALT [1] | TEAE: Increased AST [1] | TEAE: Neutropenia [1] | TEAE: Abdominal distension (7.11 mg/m^2 (n = 7), Grade 3–4) | TEAE: Asthenia (7.11 mg/m^2 (n = 7), Grade 3–4) | TEAE: Back pain (7.11 mg/m^2 (n = 7), Grade 3–4) | TEAE: Constipation (7.11 mg/m^2 (n = 7), Grade 3–4) | TEAE: Cough (7.11 mg/m^2 (n = 7), Grade 3–4) | TEAE: Decreased appetite (7.11 mg/m^2 (n = 7), Grade 3–4) | TEAE: Dehydration (7.11 mg/m^2 (n = 7), Grade 3–4) | TEAE: Diarrhea (7.11 mg/m^2 (n = 7), Grade 3–4) | TEAE: Dizziness (7.11 mg/m^2 (n = 7), Grade 3–4) | TEAE: Fatigue (7.11 mg/m^2 (n = 7), Grade 3–4) | TEAE: Flatulence (7.11 mg/m^2 (n = 7), Grade 3–4) | TEAE: Hyperbilirubinemia (7.11 mg/m^2 (n = 7), Grade 3–4) | TEAE: Hyperglycemia (7.11 mg/m^2 (n = 7), Grade 3–4) | TEAE: Hyperuricemia (7.11 mg/m^2 (n = 7), Grade 3–4) | TEAE: Hypokalemia (7.11 mg/m^2 (n = 7), Grade 3–4) | TEAE: Hypophosphatemia (7.11 mg/m^2 (n = 7), Grade 3–4) | TEAE: Increased ALP (7.11 mg/m^2 (n = 7), Grade 3–4) | TEAE: Increased ALT (7.11 mg/m^2 (n = 7), Grade 3–4) | TEAE: Increased AST (7.11 mg/m^2 (n = 7), Grade 3–4) | TEAE: Nausea (7.11 mg/m^2 (n = 7), Grade 3–4) | TEAE: Neutropenia (7.11 mg/m^2 (n = 7), Grade 3–4) | TEAE: Peripheral edema (7.11 mg/m^2 (n = 7), Grade 3–4) | TEAE: Pyrexia (7.11 mg/m^2 (n = 7), Grade 3–4) | TEAE: Urinary tract infection (7.11 mg/m^2 (n = 7), Grade 3–4) | TEAE: Weight decreased (7.11 mg/m^2 (n = 7), Grade 3–4) | TEAE: Abdominal distension (10 mg/m^2 (n = 3), All grades) | TEAE: Anemia (10 mg/m^2 (n = 3), All grades) | TEAE: Asthenia (10 mg/m^2 (n = 3), All grades) | TEAE: Back pain (10 mg/m^2 (n = 3), All grades) | TEAE: Cough (10 mg/m^2 (n = 3), All grades) | TEAE: Decreased appetite (10 mg/m^2 (n = 3), All grades) | TEAE: Dehydration (10 mg/m^2 (n = 3), All grades) | TEAE: Dizziness (10 mg/m^2 (n = 3), All grades) | TEAE: Dyspnea (10 mg/m^2 (n = 3), All grades) | TEAE: Fatigue (10 mg/m^2 (n = 3), All grades) | TEAE: Flatulence (10 mg/m^2 (n = 3), All grades) | TEAE: Hyperbilirubinemia (10 mg/m^2 (n = 3), All grades) | TEAE: Hyperuricemia (10 mg/m^2 (n = 3), All grades) | TEAE: Hypophosphatemia (10 mg/m^2 (n = 3), All grades) | TEAE: Increased ALP (10 mg/m^2 (n = 3), All grades) | TEAE: Increased ALT (10 mg/m^2 (n = 3), All grades) | TEAE: Increased AST (10 mg/m^2 (n = 3), All grades) | TEAE: Peripheral edema (10 mg/m^2 (n = 3), All grades) | TEAE: Pyrexia (10 mg/m^2 (n = 3), All grades) | TEAE: Weight decreased (10 mg/m^2 (n = 3), All grades) | TEAE: Abdominal distension (10 mg/m^2 (n = 3), Grade 3–4) | TEAE: Abdominal pain (10 mg/m^2 (n = 3), Grade 3–4) | TEAE: Anemia (10 mg/m^2 (n = 3), Grade 3–4) | TEAE: Asthenia (10 mg/m^2 (n = 3), Grade 3–4) | TEAE: Back pain (10 mg/m^2 (n = 3), Grade 3–4) | TEAE: Constipation (10 mg/m^2 (n = 3), Grade 3–4) | TEAE: Cough (10 mg/m^2 (n = 3), Grade 3–4) | TEAE: Decreased appetite (10 mg/m^2 (n = 3), Grade 3–4) | TEAE: Dehydration (10 mg/m^2 (n = 3), Grade 3–4) | TEAE: Diarrhea (10 mg/m^2 (n = 3), Grade 3–4) | TEAE: Dizziness (10 mg/m^2 (n = 3), Grade 3–4) | TEAE: Dyspnea (10 mg/m^2 (n = 3), Grade 3–4) | TEAE: Fatigue (10 mg/m^2 (n = 3), Grade 3–4) | TEAE: Flatulence (10 mg/m^2 (n = 3), Grade 3–4) | TEAE: Hyperbilirubinemia (10 mg/m^2 (n = 3), Grade 3–4)
7 (100) n (%): TEAE: Subjects with any AE [1]
3 (43) n (%): TEAE: Abdominal pain [1] | TEAE: Anemia [1] | TEAE: Dizziness [1] | TEAE: Dyspnea [1] | TEAE: Fatigue [1]
4 (57) n (%): TEAE: Subjects with any AE (7.11 mg/m^2 (n = 7), Grade 3–4)
1 (14) n (%): TEAE: Abdominal distension [1] | TEAE: Back pain [1] | TEAE: Constipation [1] | TEAE: Dehydration [1] | TEAE: Diarrhea [1] | TEAE: Hypokalemia [1] | TEAE: Peripheral edema [1] | TEAE: Pyrexia [1] | TEAE: Weight decreased [1] | TEAE: Abdominal pain (7.11 mg/m^2 (n = 7), Grade 3–4) | TEAE: Dyspnea (7.11 mg/m^2 (n = 7), Grade 3–4) | TEAE: Vomiting (7.11 mg/m^2 (n = 7), Grade 3–4)
3 (100) n (%): TEAE: Subjects with any AE (10 mg/m^2 (n = 3), All grades)
